Data: patent US10286038B2, “Lysosome membrane protein 2 (LIMP-2) based peptides and related uses” (Northwestern University, priority 2016, dated 2019)
Substitutions are numbered along the chain they refer to.

How the values were obtained:
GC in H4 cells = biological target: T1, GC in H4 cells (Homo sapiens, UniProt P04062); experiment: whole cell GC activity of H4 cell lysate over the 74 hrs time course; type: cell-based; details: H4 cells incubated with TAT-peptide
T1 construct: Lysosomal GC activity of living H4 cells measured in vivo after incubation with uptake-optimized TAT-peptides; endogenous in cells; host or cells: H4 human neuroglioma cells (for the 74 h course: stably overexpressing α-synuclein)
T1 sequence (P04062 40-536): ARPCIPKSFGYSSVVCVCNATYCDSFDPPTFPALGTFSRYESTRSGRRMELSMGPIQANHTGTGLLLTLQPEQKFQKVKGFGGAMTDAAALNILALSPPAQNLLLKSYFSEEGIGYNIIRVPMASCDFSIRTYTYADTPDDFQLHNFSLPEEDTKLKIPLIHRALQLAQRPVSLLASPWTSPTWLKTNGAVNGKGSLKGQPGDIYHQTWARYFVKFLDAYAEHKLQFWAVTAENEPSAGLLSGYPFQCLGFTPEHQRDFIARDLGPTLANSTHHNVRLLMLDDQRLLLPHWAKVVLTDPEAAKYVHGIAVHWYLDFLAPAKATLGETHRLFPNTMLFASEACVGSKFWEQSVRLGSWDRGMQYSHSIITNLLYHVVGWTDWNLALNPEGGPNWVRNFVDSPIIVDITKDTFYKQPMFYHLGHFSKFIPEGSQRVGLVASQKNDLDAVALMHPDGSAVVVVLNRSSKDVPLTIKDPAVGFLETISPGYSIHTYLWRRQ
Protocol: FIG. 6: Characterization of a helical LIMP-2-derived peptide. […] B) In vitro peptide pulldown assay: helix 5 peptides were incubated with recombinant LAMAN and bovine serum albumin (BSA). INPUT and BOUND fractions were loaded onto SDS-PAGE and proteins visualized by coomassie staining (CBB). C) Densitometry of LAMAN and BSA protein bound to peptide, normalized to protein fraction bound to beads only (buffer; n=2-3). D) and E) Activity assay of recombinant (D) GC and (E) LAMAN incubated with different excess molarities (1×-10×) of helix 5 peptide (n=β-5) and LIMP-2 ectodomain (n=4). GC activities were normalized and statistical analyses compared to 0 input of BSA/helix 5 peptide. F) Peptide-pulldown of GC constructs overexpressed in N2a cells with subsequent Western blot analysis (α-hGC) utilizing helix 5 and the 3×D control peptide as a negative binding control. G) Densitometry of GC protein bound to peptides; each construct is normalized to buffer only. H) Live-cell lysosomal GC activity of H4 cells after uptake of helix 5 and 3×D TAT peptides. GC activity was measures every 30 minutes up to 3.5 hours. Cells were treated with DMSO or the “lysosomal inhibitor” bafilomycinA1. […] Lysosomal activity is calculated by subtracting the AUC of DMSO with the AUC of bafilomycinA1 treated samples (n=4). […] GC activity was measured from 16-74 hours and is shown in mU/mg (n=3). […]

[1] = biological target: T2, recombinant N370S mutant GC (Homo sapiens, UniProt P04062, N409S); experiment: peptide pulldown of recombinant N370S mutant GC; type: binding; details: cell-free system
T2 sequence (P04062 40-536 N409S): T1 sequence (P04062 40-536) with N370S
Protocol: For the pulldown of recombinant protein utilizing LIMP-2-derived peptides, 2 nmol of protein (GC, LAMAN and BSA) was incubated overnight at 4° C. with the ten-fold molecular amount (20 nmol) of biotinylated LIMP-2-derived peptides (helix 5, 3×D as well as TAT-peptides (see Table 1)) at neutral pH. The total incubation volume was 250 μl (50 mM NaPhosphate buffer, 150 mM NaCl, pH7). ‘High Capacity Streptavidin Beads’ (Thermo Fisher Scientific, Waltham, USA) were blocked with 1% BSA solution and equilibrated with the NaPhosphate buffer. For each pulldown 50 μl of beads were utilized and incubated with 200 μl enzyme/peptide mixture for 30 min. at room temperature. The remaining 50 μl of the enzyme/peptide samples were prepared for SDS-PAGE (INPUT fraction). After incubation of the beads with the enzyme/peptide mixture the samples were centrifuged for 1 min. at 1,500×g at 4° C. The supernatant was removed and stored at 4° C. (UNBOUND fraction). Subsequently, the beads were washed three times with NaPhosphate buffer followed by centrifugation at 4,000 rpm at room temperature. […] The INPUT and BOUND fractions of the pulldown experiments were loaded on a NuPAGE® Novex® 4-12% Bis-Tris gels (Thermo Fisher Scientific, Waltham, USA), subjected to electrophoresis and stained with coomassie (Brilliant Blue, R-250; BioRad). After destaining the gels were scanned.

[2] = tested on: α-synuclein in H4 cells stably overexpressing α-synuclein; details: doxycycline, 74 hrs post incubation, compared to 3×D control peptide
Protocol: For Western blotting 20-40 μg of protein was loaded on a 10% Tris-SDS (made in house) or 4-12% Bis-Tris/NuPAGE Novex gel system (Thermo Fisher Scientific), subjected to electrophoresis, and blotted on nitrocellulose or PVDF membranes [2 h at 4° C. and 0.85 ampere (A) constant]. Membranes were blocked in 5% (wt/vol) milk Tris-buffered saline (TBS-T, pH 7.4, 0.1% Tween-20), and primary antibodies were incubated overnight (for more details on antibody dilutions see Table 4). PVDF membranes for α-synuclein detection were postfixed in 0.4% paraformaldehyde (PFA) (Polysciences Inc.) for 20 min after blotting. Signals were normalized to the respective loading controls [actin, neuronal-specific enolase (NSE), or GAPDH] […] Primary antibodies were incubated overnight at 4° C. After three washing steps in TBS-T the membranes were incubated for 1 h with the respective secondary antibody at room temperature. After the membrane was washed again three times with TBS-T, the signal of the antibody was detected using a chemiluminescence detection system (LAS4000; GE Healthcare Life Sciences) or by scanning on an infrared imager (Odyssey; LI-COR Biosciences).
The α-synuclein turn-over rate in the presence of the LIMP-2-derived peptides was assessed in human neuroglioma cells (H4), stably overexpressing α-synuclein. […]

Biotin-Ttds-KFERQLREIIEAMLKAYQQKLFVTHTVDEYGRKKRRQRRR [helix 5 TAT-peptide]
enhancement of GC activity over the 74 hrs time course (GC in H4 cells): persists
precipitation of recombinant N370S mutant GC [1]: as efficiently as recombinant wild-type GC
α-synuclein levels [2]: significant reduction
